ChEMBL document CHEMBL5120822, “Inhibition of the P2X7/NLRP3 Inflammasome Signaling Pathway by Deacetylgedunin from Toona sinensis” (J Nat Prod, 2022)
pIC50: −log10 of the molar value. Activity calls are given as the source filed them.

What was measured:
[1] = molecular target: NACHT, LRR and PYD domains-containing protein 3 (Homo sapiens) (UniProt Q96P20); experiment: Inhibition of NLRP3 inflammasome activation in PMA-differentiated and LPS/NIG-stimulated human THP-1 cells assessed as decrease in caspase-1 expression at 20 uM incubated for 1 hrs followed by LPS stimulation for 12 hrs and NIG addition for 2 hrs by western blot analysis; format: cell-based; conditions: time 15.0 hrs
J774.A1 = experiment: Antiinflammatory activity against LPS/ATP-induced […] cells assessed as inhibition of ROS release at 20 uM incubated for 1 hrs followed by LPS stimulation for 12 hrs and ATP addition for 0.5 hrs by DCFH-DA staining based flow cytometry analysis; format: functional, cell-based; conditions: Mus musculus, time 13.5 hrs
J774.1 = experiment: Cytotoxicity against mouse J774.1 cells derived macrophage assessed as reduction in cell viability upto 40 uM incubated for 24 hrs by CCK-8 assay; format: toxicity, cell-based; conditions: j774.1, 24 h
[2] = molecular target: NACHT, LRR and PYD domains-containing protein 3 (Homo sapiens) (UniProt Q96P20); experiment: Inhibition of NLRP3 inflammasome activation in PMA-differentiated and LPS/ATP-stimulated human THP-1 cells assessed as assessed as increase in intracellular chloride concentration at 20 uM incubated for 1 hrs followed by LPS stimulation for 12 hrs and ATP addition for 0.5 hrs by MQAE staining based flow cytometry; format: cell-based; conditions: time 13.5 hrs
[3] = molecular target: NACHT, LRR and PYD domains-containing protein 3 (Homo sapiens) (UniProt Q96P20); experiment: Inhibition of NLRP3 inflammasome activation in PMA-differentiated and LPS/NIG-stimulated human THP-1 cells assessed as decrease in pro-caspase-1 expression at 20 uM incubated for 1 hrs followed by LPS stimulation for 12 hrs and NIG addition for 2 hrs by western blot analysis; format: cell-based; conditions: time 15.0 hrs
THP-1 [4] = experiment: Antiinflammatory activity against PMA-differentiated and LPS/ATP stimulated human THP-1 cells assessed as increase in cell viability at 5 to 20 uM incubated for 1 hrs followed by LPS stimulation for 12 hrs and ATP addition for 0.5 hrs by LDH assay; format: functional, cell-based; conditions: dose 5-20 µM, time 13.5 hrs
[5] = molecular target: T1, P2X purinoceptor 7 (Homo sapiens) (UniProt Q99572); experiment: Inhibition of pronase mediated degradation of P2X7 in human THP-1 cells assessed as increase in P2X7 expression at 20 to 80 uM by Western blot analysis; format: cell-based; conditions: dose 20-80 µM
T1 sequence (whole entry): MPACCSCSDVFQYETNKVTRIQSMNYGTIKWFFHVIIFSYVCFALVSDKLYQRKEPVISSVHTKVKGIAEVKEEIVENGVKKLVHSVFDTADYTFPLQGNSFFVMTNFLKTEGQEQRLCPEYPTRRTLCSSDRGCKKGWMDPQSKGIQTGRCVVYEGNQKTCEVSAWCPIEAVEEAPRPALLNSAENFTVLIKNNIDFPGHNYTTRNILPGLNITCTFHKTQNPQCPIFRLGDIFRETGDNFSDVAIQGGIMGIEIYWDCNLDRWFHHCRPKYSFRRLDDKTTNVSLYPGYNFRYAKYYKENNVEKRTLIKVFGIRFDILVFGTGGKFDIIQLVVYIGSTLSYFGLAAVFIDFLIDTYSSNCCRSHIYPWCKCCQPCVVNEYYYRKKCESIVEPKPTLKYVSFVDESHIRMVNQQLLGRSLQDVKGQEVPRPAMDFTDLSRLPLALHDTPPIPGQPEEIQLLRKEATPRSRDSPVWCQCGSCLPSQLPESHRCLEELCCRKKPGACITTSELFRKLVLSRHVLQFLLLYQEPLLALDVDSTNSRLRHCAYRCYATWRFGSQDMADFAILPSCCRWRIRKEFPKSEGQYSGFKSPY

[6] = molecular target: NACHT, LRR and PYD domains-containing protein 3 (Homo sapiens) (UniProt Q96P20); experiment: Inhibition of NLRP3 inflammasome activation in PMA-differentiated and LPS/NIG-stimulated human THP-1 cells assessed as inhibition of IL-1beta secretion at 20 uM incubated for 1 hrs followed by LPS stimulation for 12 hrs and NIG addition for 2 hrs by ELISA; format: cell-based; conditions: time 15.0 hrs
[7] = molecular target: NACHT, LRR and PYD domains-containing protein 3 (Homo sapiens) (UniProt Q96P20); experiment: Inhibition of NLRP3 inflammasome activation in PMA-differentiated and LPS/ATP-stimulated human THP-1 cells assessed as reduction in nuclear localization of NF-KappaB at 20 uM incubated for 1 hrs followed by LPS stimulation for 12 hrs and ATP addition for 0.5 hrs by DAPI staining based immunofluorescence analysis; format: cell-based; conditions: time 13.5 hrs
[8] = molecular target: NACHT, LRR and PYD domains-containing protein 3 (Homo sapiens) (UniProt Q96P20); experiment: Inhibition of NLRP3 inflammasome activation in PMA-differentiated and LPS/MSU-stimulated human THP-1 cells assessed as decrease in caspase-1 expression at 20 uM incubated for 1 hrs followed by LPS stimulation for 12 hrs and MSU addition for 6 hrs by western blot analysis; format: cell-based; conditions: time 19.0 hrs
RAW264.7 [9] = experiment: Antiinflammatory activity in mouse RAW264.7 assessed as inhibition of LPS-induced NO production incubated for 1 hrs followed by LPS stimulation for 18 hrs by Griess reagent based assay; format: functional, cell-based
[10] = molecular target: NACHT, LRR and PYD domains-containing protein 3 (Homo sapiens) (UniProt Q96P20); experiment: Inhibition of NLRP3 inflammasome activation in PMA-differentiated and LPS/ATP-stimulated human THP-1 cells assessed as downregulation of NF-KappaB p65 subunit phosphorylation at 5 to 20 uM incubated for 1 hrs followed by LPS stimulation for 12 hrs and ATP addition for 0.5 hrs by Western blot analysis; format: cell-based; conditions: dose 5-20 µM, time 13.5 hrs
THP-1 [11] = experiment: Antiinflammatory activity against PMA-differentiated human THP-1 cells assessed as reduction in IL-1beta level at 20 uM incubated for 1 hrs followed by LPS stimulation for 12 hrs and ATP addition for 0.5 hrs by ELISA; format: functional, cell-based; conditions: time 13.5 hrs
[12] = molecular target: NACHT, LRR and PYD domains-containing protein 3 (Homo sapiens) (UniProt Q96P20); experiment: Inhibition of NLRP3 inflammasome activation in PMA-differentiated and LPS/ATP-stimulated human THP-1 cells assessed as assessed as increase in potassium ion concentration at 5 to 20 uM incubated for 1 hrs followed by LPS stimulation for 12 hrs and ATP addition for 0.5 hrs by EPG-2 AM staining based confocal microscopy; format: cell-based; conditions: dose 5-20 µM, time 13.5 hrs
[13] = molecular target: NACHT, LRR and PYD domains-containing protein 3 (Homo sapiens) (UniProt Q96P20); experiment: Inhibition of NLRP3 inflammasome activation in PMA-differentiated and LPS/ATP-stimulated human THP-1 cells assessed as inhibition of IL-1beta secretion at 5 to 20 uM incubated for 1 hrs followed by LPS stimulation for 12 hrs and ATP addition for 0.5 hrs by ELISA; format: cell-based; conditions: dose 5-20 µM, time 13.5 hrs, DDE = dose-dependent effect
THP-1 [14] = experiment: Antiinflammatory activity against PMA-differentiated and LPS/NIG stimulated human THP-1 cells assessed as increase in cell viability at 5 to 20 uM incubated for 1 hrs followed by LPS stimulation for 12 hrs and NIG addition for 2 hrs by LDH assay; format: functional, cell-based; conditions: dose 5-20 µM, time 15.0 hrs
RAW264.7 [15] = experiment: Cytotoxicity against mouse RAW264.7 cells derived macrophage assessed as reduction in cell viability upto 40 uM incubated for 24 hrs by CCK-8 assay; format: toxicity, cell-based; conditions: raw264.7, 24 h
[16] = molecular target: NACHT, LRR and PYD domains-containing protein 3 (Homo sapiens) (UniProt Q96P20); experiment: Inhibition of NLRP3 inflammasome activation in PMA-differentiated and LPS/MSU-stimulated human THP-1 cells assessed as decrease in IL-1beta expression at 20 uM incubated for 1 hrs followed by LPS stimulation for 12 hrs and MSU addition for 6 hrs by western blot analysis; format: cell-based; conditions: time 19.0 hrs
[17] = molecular target: NACHT, LRR and PYD domains-containing protein 3 (Homo sapiens) (UniProt Q96P20); experiment: Inhibition of NLRP3 inflammasome activation in PMA-differentiated and LPS/ATP-stimulated human THP-1 cells assessed as reduction in total NF-KappaB P65 nuclear expression at 5 to 20 uM incubated for 1 hrs followed by LPS stimulation for 12 hrs and ATP addition for 0.5 hrs by Western blot analysis; format: cell-based; conditions: dose 5-20 µM, time 13.5 hrs
[18] = molecular target: NACHT, LRR and PYD domains-containing protein 3 (Homo sapiens) (UniProt Q96P20); experiment: Inhibition of NLRP3 inflammasome activation in PMA-differentiated and LPS/MSU-stimulated human THP-1 cells assessed as decrease in pro-caspase-1 expression at 20 uM incubated for 1 hrs followed by LPS stimulation for 12 hrs and MSU addition for 6 hrs by western blot analysis; format: cell-based; conditions: time 19.0 hrs

Chain of NACHT, LRR and PYD domains-containing protein 3 (Homo sapiens) (Q96P20 whole entry, the tested form may be a part): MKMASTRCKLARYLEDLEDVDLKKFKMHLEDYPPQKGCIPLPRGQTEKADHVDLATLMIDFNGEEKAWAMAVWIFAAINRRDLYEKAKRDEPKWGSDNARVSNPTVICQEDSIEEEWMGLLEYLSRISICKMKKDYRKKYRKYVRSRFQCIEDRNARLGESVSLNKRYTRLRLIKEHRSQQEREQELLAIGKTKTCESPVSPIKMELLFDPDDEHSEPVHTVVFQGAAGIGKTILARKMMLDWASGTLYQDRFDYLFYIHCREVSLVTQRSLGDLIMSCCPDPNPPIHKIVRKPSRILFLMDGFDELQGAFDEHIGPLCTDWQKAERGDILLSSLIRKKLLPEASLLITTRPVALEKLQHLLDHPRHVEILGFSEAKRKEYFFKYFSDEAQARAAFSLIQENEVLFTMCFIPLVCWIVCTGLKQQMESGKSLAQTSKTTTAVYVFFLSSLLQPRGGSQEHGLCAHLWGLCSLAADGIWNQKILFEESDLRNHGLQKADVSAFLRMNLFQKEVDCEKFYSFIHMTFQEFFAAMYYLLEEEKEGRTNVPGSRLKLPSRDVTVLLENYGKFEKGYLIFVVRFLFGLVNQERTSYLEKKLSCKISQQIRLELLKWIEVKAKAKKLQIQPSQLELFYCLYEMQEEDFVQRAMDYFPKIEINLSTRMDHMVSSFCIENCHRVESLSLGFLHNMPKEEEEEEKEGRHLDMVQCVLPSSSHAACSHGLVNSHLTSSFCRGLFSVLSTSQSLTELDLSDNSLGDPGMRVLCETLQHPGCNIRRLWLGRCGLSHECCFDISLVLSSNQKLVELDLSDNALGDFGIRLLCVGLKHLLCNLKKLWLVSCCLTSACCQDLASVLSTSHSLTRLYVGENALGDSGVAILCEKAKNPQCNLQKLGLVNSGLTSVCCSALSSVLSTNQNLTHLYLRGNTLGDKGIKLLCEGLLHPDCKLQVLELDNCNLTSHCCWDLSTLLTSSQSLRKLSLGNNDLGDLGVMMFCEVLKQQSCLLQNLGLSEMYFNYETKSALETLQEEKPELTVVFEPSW

CC1(C)C(=O)C=C[C@]2(C)[C@H]3CC[C@@]4(C)[C@H](c5ccoc5)OC(=O)[C@H]5O[C@]54[C@]3(C)[C@H](O)C[C@@H]12 [DEACETYLGEDUNIN]
active: inhibition [1] | Activity (J774.A1) | inhibition [2] | inhibition [3] | Activity (THP-1 [4]) | inhibition [5] | inhibition [6] | inhibition [7] | inhibition [8] | inhibition [10] | Activity (THP-1 [11]) | inhibition [12] | inhibition [13] Dde | Activity (THP-1 [14]) | inhibition [16] | inhibition [17] | inhibition [18]
5.04: pIC50 (RAW264.7 [9])
Non-Toxic: Activity (J774.1) | Activity (RAW264.7 [15])
